Where “and” joins values, the source holds several entries; their conditions need not be identical. Equal entries are not always repeated. Where two headings read alike, the source gives them in different places.
Experiments:
E. acervulina [1] = type: in vivo, Cobb×Cobb 500 male broiler chicks; conditions: scored d35, scale 0-4
E. acervulina [2] = type: in vivo, Cobb×Cobb 500 male broiler chicks; conditions: feces d35
E. maxima [3] = type: in vivo, Cobb×Cobb 500 male broiler chicks; conditions: feces d35
[4] = tested on: mixed Eimeria challenge (E. acervulina, E. maxima, E. tenella); set-up: species or system Cobb×Cobb 500 male broiler chicks; conditions: in vivo
E. tenella [5] = type: in vivo, Cobb×Cobb 500 male broiler chicks; conditions: scored d35, scale 0-4
E. tenella [6] = type: in vivo, Cobb×Cobb 500 male broiler chicks; conditions: feces d35
E. maxima [7] = type: in vivo, Cobb×Cobb 500 male broiler chicks; conditions: scored d35, scale 0-4
[8] = tested on: Eimeria tenella sporozoites; assay: In vitro MTT assay of Eimeria tenella sporozoite viability
C. perfringens = type: in vivo, Cobb×Cobb 500 male broiler chicks
[9] = Treatments In (kept in basal diet d28-35)
[10] = Treatments Out (removed from basal diet d28-35)

Compound	Average lesion score E. acervulina (E. acervulina [1]; [9])	Average lesion score E. acervulina (E. acervulina [1]; [10])	Average oocysts per gram (OPG) in feces E. acervulina (E. acervulina [2]; Treatments In)	Average oocysts per gram (OPG) in feces E. acervulina (E. acervulina [2]; Treatments Out)	Average oocysts per gram (OPG) in feces E. maxima (E. maxima [3]; Treatments In)	Average oocysts per gram (OPG) in feces E. maxima (E. maxima [3]; Treatments Out)	Average lesion score Overall [4]	Average lesion score E. tenella (E. tenella [5]; [9])	Average lesion score E. tenella (E. tenella [5]; [10])	Average oocysts per gram (OPG) in feces E. tenella (E. tenella [6]; Treatments In)	Average oocysts per gram (OPG) in feces E. tenella (E. tenella [6]; Treatments Out)	Average lesion score E. maxima (E. maxima [7]; [9])	Average lesion score E. maxima (E. maxima [7]; [10])	additional decrease of sporozoite viability ([8]; 100 ppm compared to 50 ppm)	sporozoite viability (in words) ([8]; MTT assay, 50 and 100 ppm, salinomycin 60 ppm positive control)	mortality due to necrotic enteritis (in words) (C. perfringens; C. perfringens challenged birds)	FCR (in words) (C. perfringens; C. perfringens challenged broilers)	FCR (0-21 days) (C. perfringens; challenged with C. perfringens d19, 20, 21, FCR adjusted for mortality)
CC[C@@H](C(=O)[C@@H](C)[C@@H](O)[C@H](C)[C@@H]1O[C@@H]([C@@H](CC)C(=O)O)CC[C@@H]1C)[C@H]1O[C@]2(C=C[C@@H](O)[C@]3(CC[C@@](C)([C@H]4CC[C@](O)(CC)[C@H](C)O4)O3)O2)[C@H](C)C[C@@H]1C [BioCox ®, salinomycin]	0.95	1.50	734 oocysts per gram	19510 oocysts per gram	67 oocysts per gram	0 oocysts per gram	0.87 and 1.09	1.05	1.00	1167 oocysts per gram	1668 oocysts per gram	0.60	0.78					
N=C(N/N=C/c1ccc(Cl)cc1)N/N=C/c1ccc(Cl)cc1 [Robenz ®, Robenidine]	0.45	1.38	1301 oocysts per gram	4869 oocysts per gram	0 oocysts per gram	600 oocysts per gram	1.02	2.30	1.00	1034 oocysts per gram	3468 oocysts per gram	0.30	0.68					
O=C(OC[C@H]1O[C@@H](OC(=O)c2cc(O)c(O)c(OC(=O)c3cc(O)c(O)c(O)c3)c2)[C@H](OC(=O)c2cc(O)c(O)c(OC(=O)c3cc(O)c(O)c(O)c3)c2)[C@@H](OC(=O)c2cc(O)c(O)c(OC(=O)c3cc(O)c(O)c(O)c3)c2)[C@@H]1OC(=O)c1cc(O)c(O)c(OC(=O)c2cc(O)c(O)c(O)c2)c1)c1cc(O)c(O)c(OC(=O)c2cc(O)c(O)c(O)c2)c1 [tannic acid]														5%	reductions were greater			
bacitracin methylene disalicylate [BMD]																reduced	improved FCR	1.904
